Results from paper PMC3820767, “Turning Defense into Offense: Defensin Mimetics as Novel Antibiotics Targeting Lipid II” (PLoS Pathogens, 2013).
Read-outs that look alike come from different tables or passages of the source.

What was measured:
[1] = tested on: Caco-2; assay: Cytotoxicity by MTT assay; format: cell-based, human
[2] = tested on: Staphylococcus aureus ATCC 29213; assay: Antibacterial killing, 96-well turbidimetric (modified vCC) assay; format: cell-based; conditions: Table S3; concentration at which 100% killing occurred, no bacterial regrowth; No = not active
Protocol: (§1) The antibacterial activity of defensin mimetics against Staphylococcus aureus ATCC 29213 and Escherichia coli 25922 was carried out in a 96-well turbidimetric assay essentially as described previously with the following modifications: bacteria were exposed for 30 min to compounds in 10 mM phosphate buffer containing 5% DMSO prior to addition of 2× Muller-Hinton medium. Bacterial growth was monitored for 12 hours and data were analyzed as described. Determination of MICs was performed by Micromyx, LLC (Kalamazoo, Michigan) according to CLSI standards.

[3] = tested on: Escherichia coli ATCC 25922; assay: as above; format: cell-based; conditions: Table S3; concentration at which 100% killing occurred, no bacterial regrowth; No = not active
Protocol: as §1

[4] = Surface Plasmon Resonance binding to immobilized 3-Lipid II; conditions: SPR; for Binding on Lipid II?: Table S3, initial determination at 10 µM
Protocol: Surface Plasmon Resonance binding experiments were carried out on a BIAcore T100 system (BIAcore Inc., Piscataway, NY) at 25°C. The assay buffer was 10 mM HEPES, 150 mM NaCl, 0.05% surfactant P20, pH 7.4 (±3 mM EDTA) supplemented with 10% DMSO. […] For initial determination of binding, defensin mimetics were introduced into the flow-cells (30 µl/min) in the running buffer at 10 µM. Resonance signals were corrected for nonspecific binding by subtracting the background of the control flow-cell. After each analysis, the sensor chip surfaces were regenerated with 50 mM NaOH for 30 s at a flow rate 100 µl/min, and equilibrated with the buffer prior to next injection. For binding kinetics studies, binding isotherms were analyzed with manufacturer-supplied software for BIAcore T100.

For `COc1ccc(C=C[c+]2cc(-c3ccccc3)cc(-c3ccccc3)o2)cc1` [BAS00138032, 2-[2-(4-Methoxy-phenyl)-vinyl]-4,6-diphenyl-pyranylium], the “cytotoxic for Caco II (C50% survival)” value [1] was “No”, the “active against S.aureus (IC100%)” value [2] was “No” and the “active against E.coli (IC100%)” value [3] was “No”. For the same compound, the “Binding on Lipid II?” value [4] was “No”.
With `FC(F)(F)c1cccc(N2CCN(Cc3ccc4c(c3)Cc3ccccc3-4)CC2)c1` [Compound 5418391, 1-(9H-fluoren-2-ylmethyl)-4-[3-(trifluoromethyl)phenyl]piperazine] the IC50 [1] was 159 µM, the “active against S.aureus (IC100%)” value [2] was “No” and the “active against E.coli (IC100%)” value [3] was “No”. The “Binding on Lipid II?” value [4] was “No”.
With `CCC[N+](CC#CCO)(CC#Cc1ccccc1)CCC` [Compound 4636-0141, (4-hydroxybut-2-yn-1-yl)(3-phenylprop-2-yn-1-yl)dipropylazanium] the “cytotoxic for Caco II (C50% survival)” value [1] was “No”, the “active against S.aureus (IC100%)” value [2] was “No” and the “active against E.coli (IC100%)” value [3] was “No”. The “Binding on Lipid II?” value [4] was “No”.
With `C(#Cc1ccccc1)CN(CC#Cc1ccccc1)CCCCCCN(CC#Cc1ccccc1)CC#Cc1ccccc1.Cl.Cl` [Compound 5230300, N,N,N',N'-tetrakis(3-phenyl-2-propyn-1-yl)-1,6-hexanediamine dihydrochloride] the “cytotoxic for Caco II (C50% survival)” value [1] was “No”, the “active against S.aureus (IC100%)” value [2] was “No” and the “active against E.coli (IC100%)” value [3] was “No”. The “Binding on Lipid II?” value [4] was “No”.
With `Oc1ccc(O)c2c1C1c3ccccc3C2c2ccccc21` [Compound 5190620, pentacyclo[6.6.6.0^{2,7}.0^{9,14}.0^{15,20}]icosa-2(7),3,5,9,11,13,15,17,19-nonaene-3,6-diol] the IC50 [1] was 3.7 µM, the “active against S.aureus (IC100%)” value [2] was 62,5 µM and the “active against E.coli (IC100%)” value [3] was “No”. The “Binding on Lipid II?” value [4] was “No”.
With `CC[n+]1c(/C=C/C=C/N(C(C)=O)c2ccccc2)sc2cc(OC)ccc21` [STK874226, 2-{(1E,3E)-4-[acetyl(phenyl)amino]buta-1,3-dien-1-yl}-3-ethyl-6-methoxy-1,3-benzothiazol-3-ium] the “cytotoxic for Caco II (C50% survival)” value [1] was “No”, the “active against S.aureus (IC100%)” value [2] was 125 µM and the “active against E.coli (IC100%)” value [3] was 250 µM. For the same compound, the “Binding on Lipid II?” value [4] was “No”.
For `CC[n+]1c(/C=C/C=C2\N(C)c3ccccc3C2(C)C)sc2ccccc21.[O-][Cl+3]([O-])([O-])[O-]` [Compound 5660386, 3-ethyl-2-[(1E)-3-[(2Z)-1,3,3-trimethyl-2,3-dihydro-1H-indol-2-ylidene]prop-1-en-1-yl]-1,3-benzothiazol-3-ium perchlorate], the IC50 ([1]; Table S3, No = not cytotoxic, read-out: cytotoxic for Caco II (C50% survival)) was 5.6 µM, the “active against S.aureus (IC100%)” value [2] was 7,8 µM and the “active against E.coli (IC100%)” value [3] was 125 µM. The “Binding on Lipid II?” value [4] was “No”.
For `CCN1C(=O)C(c2ccc(O)cc2)(c2ccc(O)cc2)c2ccccc21` [Compound 4896-3423, 1-ethyl-3,3-bis(4-hydroxyphenyl)-2,3-dihydro-1H-indol-2-one], the IC50 [1] was 72.1 µM and the “active against S.aureus (IC100%)” value [2] was “No”.
With `c1ccc(-c2nc(N(c3ccccc3)c3ccccc3)s[n+]2-c2ccccc2)cc1` [Compound 1492-0330, 5-(diphenylamino)-2,3-diphenyl-1,2$l^5,4-thiadiazol-2-ylium] the “Binding on Lipid II?” value [4] was “Yes”.
For `CCN1C(=CC(C)=Cc2sc3ccc4ccccc4c3[n+]2CC)Sc2ccc3ccccc3c21` [290437/2, 1-ethyl-2-(3-(1-ethylnaphtho[1,2-d][1,3]thiazol-2(1H)-ylidene)-2-methyl-1-propenyl)-1λ5-naphtho[1,2-d][1,3]thiazole], the IC50 [1] was 2.2 µM and the “Binding on Lipid II?” value [4] was “No”.
In the case of “HNP-1 R24A: single alanine mutant of HNP-1, Arg24 replaced by alanine”, the “binding to Lipid II compared to wild-type HNP-1” value ([4]; 10 µM peptide, 40 RUs 3-Lipid II) is reported as “maintained significant binding”.
In the case of `CN1/C(=C/C=C2/SC(=S)N(c3ccccc3)C2=O)C(C)(C)c2ccccc21` [Compound 2101-0102, (5E)-3-phenyl-2-sulfanylidene-5-{2-[(2E)-1,3,3-trimethyl-2,3-dihydro-1H-indol-2-ylidene]ethylidene}-1,3-thiazolidin-4-one], the “cytotoxic for Caco II (C50% survival)” value [1] is reported as “No” and the “active against S.aureus (IC100%)” value [2] is reported as “No”.
